US10702589B2, “Compositions and methods of treating neurological disorder and stress-induced conditions” (Ann and Robert H. Lurie Children's Hospital of Chicago, priority 2016, dated 2020)

Test system: AkrRE1/2 luciferase reporters
Test: AkrRE1/2 luciferase reporter assay with mevalonate pathway metabolites in primary CGE and MGE cells
Type: cell-based, mouse
Settings: FOH 0.1-100 μM, GGOH 0.01-100 μM, FIG. 2G-J
From the text: For all luciferase experiments, enhancers were cloned into the pGL3 promoter vector (Promega) using the KpnI and NheI restriction sites on the 5′ and 3′ sites, respectively. The Calb1 enhancers (site 1, site 2, and site 3), AkrR enhancers (site 1 and site 2), NPY enhancers (site 1 and site 2), and SST enhancer (site 1) were identified by MACS2 peak analysis of ChIP-seq (DNA sequences obtained from the UCSC genome browser). Primers were designed to PCR amplify enhancer sequences from C57BL/6J mouse genomic DNA into expression plasmids.
MGE and CGE tissues were dissected from E13.5 Swiss Webster embryos, dissociated in L15 media by pipetting several times, and spun through a cell strainer for single cell preparations. Briefly, cells were seeded at a density of 2.5×10^5 cells per cm^2 (Flandin et al. 2011). One day prior to seeding cells, 24-well plates were coated with poly-L-lysine (30 μg/mL; Sigma) and laminin (5 μg/mL; Sigma), while 96-well plates were coated with poly-L-lysine (3 μg/mL; Sigma) and laminin (5 μg/mL; Sigma). Initially, cells were seeded in neurobasal medium (DMEM/F-12 supplemented with L-glutamate, B-27 (Gibco), N2 supplement (Gibco), bovine pituitary extract (35 μg/mL; Life Technologies), mito+ serum extender (BD Biosciences), penicillin (100 U/mL; Gibco), streptomycin (100 μg/mL; Gibco), and glutamax (0.8 mM; Gibco)). […]

SMILES | effect on AkrRE1/2 luciferase reporters, normalized to buffer alone
CC(C)=CCCC(C)=CCCC(C)=CCO [FOH, farnesol] | dose-dependent, enhancer- and region-specific effects
CC(C)=CCC/C(C)=C/CC/C(C)=C/CC/C(C)=C/CO [GGOH, geranylgeraniol] | dose-dependent, enhancer- and region-specific effects
